Assays:
Type in all cases: in vivo
[1] = test system: common cutworm (Spodoptera Litura); test: Insecticidal effect on common cutworm (Test Example 2); settings: 500 ppm, 25° C.; for Insecticidal effect (Test Example 2), judged from mortality / Insecticidal effect on common cutworm (Test Example 2), judged grade: cabbage leaf dip; for Insecticidal effect (Test Example 2), judged from mortality: 8 days after inoculation; for Insecticidal effect on common cutworm (Test Example 2), judged grade: second-instar larvae; for Insecticidal effect on common cutworm (Test Example 2), judged grade / Insecticidal effect, Test Example 2: eight days after inoculation; for Insecticidal effect, Test Example 2: cabbage leaf immersed
Summary of the method: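 Insecticidal effect was rated from percent mortality of second-instar larvae exposed to air-dried treatment at 25° C for 8 days.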

[2] = test system: diamondback moth (Plutella xylostella); test: Insecticidal effect on diamondback moth (Test Example 1); settings: for Insecticidal effect (Test Example 1), judged from mortality / Insecticidal effect, Test Example 1: diamondback moth; for Insecticidal effect (Test Example 1), judged from mortality: judged by the criterion of Test Example 1; for Insecticidal effect on diamondback moth (Test Example 1), judged grade: mortality judged according to the criterion shown in Test Example 1
Summary of the method: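 Eggs laid by adult moths on Chinese cabbage seedlings, which were immersed in test solution, air-dried and kept at 25 °C. Hatched insects counted 6 days after immersion and mortality calculated, with effect graded by criterion; triplicate groups of 10 insects.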

[3] = test system: rice leafroller (Cnaphalocrocis medinalis); test: Insecticidal effect on rice leafroller (Test Example 3); settings: 500 ppm, 25° C., humidity 70%; for Insecticidal effect (Test Example 3), judged from mortality / Insecticidal effect on rice leafroller (Test Example 3), judged grade: rice lamina dip; for Insecticidal effect (Test Example 3), judged from mortality: 4 days after inoculation; for Insecticidal effect on rice leafroller (Test Example 3), judged grade: third-instar larvae; for Insecticidal effect on rice leafroller (Test Example 3), judged grade / Insecticidal effect, Test Example 3: four days after inoculation; for Insecticidal effect, Test Example 3: rice lamina immersed
Summary of the method: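 Groups of 10 third-instar larvae, in triplicate, are placed on air-dried lamina resting on wet filter paper. Incubation runs four days at 25° C with 70% humidity before survivors and dead are tallied.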

[4] = second-instar larvae of common cutworm
[5] = third-instar larvae of rice leafroller
[6] = common cutworm second-instar larvae
[7] = mortality judged by criterion of Test Example 1
[8] = rice leafroller third-instar larvae
[9] = judged by the mortality criterion of Test Example 1

CCN(CC)C(=O)c1c(F)cccc1C(=O)Nc1ccc(C(F)(F)C(F)(F)F)cc1C [compound 1525]
Insecticidal effect (Test Example 2), judged from mortality [1, 4]: A (100)
Insecticidal effect (Test Example 1), judged from mortality [2]: A (100)
Insecticidal effect (Test Example 3), judged from mortality [3, 5]: A (100)

Cc1cc(Sc2ccc(Cl)cc2)ccc1NC(=O)c1cccc([N+](=O)[O-])c1C(=O)NC(C)C [compound 727]
Insecticidal effect on common cutworm (Test Example 2), judged grade [1]: B (99-90)
Insecticidal effect on diamondback moth (Test Example 1), judged grade [2]: A (100)
Insecticidal effect on rice leafroller (Test Example 3), judged grade [3]: A (100)

CC(C)(C)NC(=O)c1c(I)cccc1C(=O)Nc1ccc2oc(C(F)(F)C(F)(F)F)nc2c1 [compound 1143]
Insecticidal effect, Test Example 2 [1, 6]: C (89-80)
Insecticidal effect, Test Example 1 [2, 7]: A (100)
Insecticidal effect, Test Example 3 [3, 8]: A (100)

Cc1cc(Br)ccc1NC(=O)c1cccc(I)c1C(=O)NC(C)C [compound 366]
Insecticidal effect, Test Example 2 [1, 4]: A (100)
Insecticidal effect, Test Example 1 [2, 9]: A (100)
Insecticidal effect, Test Example 3 [3, 5]: A (100)

CC(C)NC(=O)c1c(I)cccc1C(=O)Nc1ccc([S+]([O-])C(F)(F)F)cc1 (stereo not drawn) [compound 1002]
Insecticidal effect, Test Example 2 [1, 6]: A (100)
Insecticidal effect, Test Example 1 [2, 7]: A (100)
Insecticidal effect, Test Example 3 [3, 8]: A (100)

Cc1cc(Cl)ccc1NC(=O)c1cccc(I)c1C(=O)NC(C)(C)C [compound 941]
Insecticidal effect, Test Example 2 [1, 6]: A (100)
Insecticidal effect, Test Example 1 [2, 7]: A (100)
Insecticidal effect, Test Example 3 [3, 8]: A (100)

Cc1cc(OC(F)(F)F)ccc1NC(=O)c1cccc([N+](=O)[O-])c1C(=O)NC(C)C [compound 710]
Insecticidal effect on common cutworm (Test Example 2), judged grade [1]: C (89-80)
Insecticidal effect on diamondback moth (Test Example 1), judged grade [2]: A (100)
Insecticidal effect on rice leafroller (Test Example 3), judged grade [3]: A (100)

Cc1cc(SC(F)(F)C(F)(F)F)ccc1NC(=O)c1c(F)cccc1C(=O)NC(C)C [compound 906]
Insecticidal effect on common cutworm (Test Example 2), judged grade [1]: D (79-50)
Insecticidal effect on diamondback moth (Test Example 1), judged grade [2]: A (100)
Insecticidal effect on rice leafroller (Test Example 3), judged grade [3]: A (100)

Cc1c(NC(=O)c2cccc(F)c2C(=O)NC(C)C)cccc1OC(F)F [compound 499]
Insecticidal effect on common cutworm (Test Example 2), judged grade [1]: A (100)
Insecticidal effect on diamondback moth (Test Example 1), judged grade [2]: A (100)
Insecticidal effect on rice leafroller (Test Example 3), judged grade [3]: A (100)

Cc1cc(C(F)(F)C(F)(F)F)ccc1NC(=O)c1cccc(Cl)c1C(=O)NC(C)(C)C#Cc1ccsc1 [compound 1628]
Insecticidal effect (Test Example 2), judged from mortality [1, 4]: A (100)
Insecticidal effect (Test Example 1), judged from mortality [2]: A (100)
Insecticidal effect (Test Example 3), judged from mortality [3, 5]: A (100)

Cc1cc(C(F)(F)C(F)(F)F)ccc1NC(=O)c1c(I)cccc1C(=O)NC(C)(C)C [compound 943]
Insecticidal effect, Test Example 2 [1, 6]: C (89-80)
Insecticidal effect, Test Example 1 [2, 7]: A (100)
Insecticidal effect, Test Example 3 [3, 8]: A (100)

CCN(CC)C(=O)c1c(F)cccc1C(=O)Nc1ccc(Cl)cc1C [compound 1546]
Insecticidal effect (Test Example 2), judged from mortality [1, 4]: C (89-80)
Insecticidal effect (Test Example 1), judged from mortality [2]: A (100)
Insecticidal effect (Test Example 3), judged from mortality [3, 5]: A (100)

Cc1cc(OC(F)(F)Br)ccc1NC(=O)c1c(I)cccc1C(=O)NC(C)C [compound 452]
Insecticidal effect on common cutworm (Test Example 2), judged grade [1]: A (100)
Insecticidal effect on diamondback moth (Test Example 1), judged grade [2]: A (100)
Insecticidal effect on rice leafroller (Test Example 3), judged grade [3]: A (100)

CC(C)NC(=O)c1c(F)cccc1C(=O)Nc1ccc(OC(F)F)cc1C(F)(F)F [compound 527]
Insecticidal effect on common cutworm (Test Example 2), judged grade [1]: A (100)
Insecticidal effect on diamondback moth (Test Example 1), judged grade [2]: A (100)
Insecticidal effect on rice leafroller (Test Example 3), judged grade [3]: A (100)

Cc1cc(OC(F)(F)F)ccc1NC(=O)c1cccc(I)c1C(=O)NC(C)C [compound 386]
Insecticidal effect, Test Example 2 [1, 4]: A (100)
Insecticidal effect, Test Example 1 [2, 9]: A (100)
Insecticidal effect, Test Example 3 [3, 5]: A (100)

CCC(C)NC(=O)c1c(I)cccc1C(=O)Nc1ccc(C(F)(F)C(F)(F)F)cc1F (stereo not drawn) [compound 1472]
Insecticidal effect (Test Example 2), judged from mortality [1, 4]: A (100)
Insecticidal effect (Test Example 1), judged from mortality [2]: A (100)
Insecticidal effect (Test Example 3), judged from mortality [3, 5]: A (100)

CCNC(=O)c1c(I)cccc1C(=O)Nc1ccc(C(F)(F)C(F)(F)F)cc1C [compound 1313]
Insecticidal effect, Test Example 2 [1, 6]: A (100)
Insecticidal effect, Test Example 1 [2, 7]: A (100)
Insecticidal effect, Test Example 3 [3, 8]: A (100)

CCCNC(=O)c1c(I)cccc1C(=O)Nc1ccc(C(F)(F)C(F)(F)C(F)(F)F)cc1F [compound 1524]
Insecticidal effect (Test Example 2), judged from mortality [1, 4]: A (100)
Insecticidal effect (Test Example 1), judged from mortality [2]: A (100)
Insecticidal effect (Test Example 3), judged from mortality [3, 5]: A (100)

Cc1cc(C(F)(F)C(F)(F)F)ccc1NC(=O)c1cc(I)ccc1C(=O)NC(C)C [compound 1203]
Insecticidal effect, Test Example 2 [1, 6]: D (79-50)
Insecticidal effect, Test Example 1 [2, 7]: A (100)
Insecticidal effect, Test Example 3 [3, 8]: A (100)

Cc1cc(C(F)(C(F)(F)F)C(F)(F)F)ccc1NC(=O)c1cc(I)ccc1C(=O)NC(C)C [compound 1251]
Insecticidal effect, Test Example 2 [1, 6]: A (100)
Insecticidal effect, Test Example 1 [2, 7]: A (100)
Insecticidal effect, Test Example 3 [3, 8]: A (100)

Cc1cc(C(F)(F)F)ccc1NC(=O)c1cccc(Br)c1C(=O)NC(C)C [compound 277]
Insecticidal effect, Test Example 2 [1, 4]: A (100)
Insecticidal effect, Test Example 1 [2, 9]: A (100)
Insecticidal effect, Test Example 3 [3, 5]: A (100)

CCc1cc(OC(F)(F)F)ccc1NC(=O)c1cccc(I)c1C(=O)NC(C)C [compound 1210]
Insecticidal effect, Test Example 2 [1, 6]: A (100)
Insecticidal effect, Test Example 1 [2, 7]: A (100)
Insecticidal effect, Test Example 3 [3, 8]: A (100)

CC(C)NC(=O)c1c(F)cccc1C(=O)Nc1ccc(C(F)(F)C(F)(F)C(F)(F)F)cc1Cl [compound 505]
Insecticidal effect on common cutworm (Test Example 2), judged grade [1]: A (100)
Insecticidal effect on diamondback moth (Test Example 1), judged grade [2]: A (100)
Insecticidal effect on rice leafroller (Test Example 3), judged grade [3]: A (100)

COCCNC(=O)c1c(I)cccc1C(=O)Nc1ccc(C(F)(F)C(F)(F)F)cc1C [compound 981]
Insecticidal effect, Test Example 2 [1, 6]: A (100)
Insecticidal effect, Test Example 1 [2, 7]: A (100)
Insecticidal effect, Test Example 3 [3, 8]: A (100)

CC(C)NC(=O)c1c(Cl)cccc1C(=O)Nc1ccc(C(F)(F)C(F)(F)C(F)(F)C(F)(F)F)cc1 [compound 91]
Insecticidal effect, Test Example 2 [1, 4]: A (100)
Insecticidal effect, Test Example 1 [2, 9]: A (100)
Insecticidal effect, Test Example 3 [3, 5]: A (100)

CCN(CC)C(=O)c1c(I)cccc1C(=O)Nc1ccc(OC(F)(F)C(F)F)cc1C [compound 1556]
Insecticidal effect (Test Example 2), judged from mortality [1, 4]: A (100)
Insecticidal effect (Test Example 1), judged from mortality [2]: A (100)
Insecticidal effect (Test Example 3), judged from mortality [3, 5]: A (100)

CC(C)NC(=O)c1c(Cl)cccc1C(=O)Nc1ccc(C(F)(C(F)(F)F)C(F)(F)F)cc1Cl [compound 126]
Insecticidal effect, Test Example 2 [1, 4]: A (100)
Insecticidal effect, Test Example 1 [2, 9]: A (100)
Insecticidal effect, Test Example 3 [3, 5]: A (100)

CCCN(CC)C(=O)c1c(F)cccc1C(=O)Nc1ccc(C(F)(F)C(F)(F)F)cc1C [compound 1581]
Insecticidal effect (Test Example 2), judged from mortality [1, 4]: A (100)
Insecticidal effect (Test Example 1), judged from mortality [2]: A (100)
Insecticidal effect (Test Example 3), judged from mortality [3, 5]: A (100)

Cc1cc(C(F)(C(F)(F)F)C(F)(F)F)ccc1NC(=O)c1cccc(I)c1C(=O)NC(C)c1ccco1 (stereo not drawn) [compound 1799]
Insecticidal effect (Test Example 2), judged from mortality [1, 4]: A (100)
Insecticidal effect (Test Example 1), judged from mortality [2]: A (100)
Insecticidal effect (Test Example 3), judged from mortality [3, 5]: A (100)

Cc1cc(OC(F)(F)C(F)F)ccc1NC(=O)c1cccc(F)c1C(=O)NC(C)C [compound 512]
Insecticidal effect on common cutworm (Test Example 2), judged grade [1]: A (100)
Insecticidal effect on diamondback moth (Test Example 1), judged grade [2]: A (100)
Insecticidal effect on rice leafroller (Test Example 3), judged grade [3]: A (100)
